The text below walks through data of patent US20170303543A1, “AGRICHEMICAL COMPOSITIONS AND METHODS OF MAKING AND USING SAME” (priority 2014, published 2017).

This test deals with Xanthomonas alfalfae. As to the kind of experiment: Alamar Blue assay for antimicrobial activity (FIG. 11). Type of test: cell-based. As to conditions: metallic zinc concentration as low as 50 PPM, components at relevant concentrations. From the text:
FIG. 11A, FIG. 11B, FIG. 11C and FIG. 11D show a series of images illustrating Alamar Blue assay in accordance with the embodiments. […] It is to be understood that this disclosure is not limited to the foregoing particular embodiments described, as such may, of course, vary. It is also to be understood that the terminology used herein is for the purpose of describing particular embodiments only, and is not intended to be limiting, since the scope of the present disclosure will be limited only by the appended claims.
On to `[Zn+2]` [divalent zinc ion], for which the “antimicrobial effect against Xanthomonas alfalfae” value (from here on “antimicrobial effect”) is reported as “did not elicit similar effect”.
Take `OO` [hydrogen peroxide]: the “antimicrobial effect” value is “did not elicit similar effect”.
Turning to `NC(N)=O` [urea], the “antimicrobial effect” value is recorded as “did not elicit similar effect”.
